pKi: −log10 of the molar value. Converted amounts (≈) assume the structure as drawn.
Tests used:
[1] = test system: Staphylococcus aureus MSQS (methicillin sensitive and quinolone sensitive); test: MIC, agar-dilution, Staphylococcus aureus MSQS; assay type: cell-based; conditions: S. aureus MSQS, inoculum 10^4 CFU/spot, 37° C., 24 hours
Experimental: (§1) The following results were obtained on a standard in-vitro test system. The activity is described in terms of the minimum inhibitory concentration (MIC) determined by the agar-dilution technique with an inoculum size of 10^4 CFU/spot. Typically, compounds are active in the range 0.01 to 256 μg/ml.
(§2) Staphylococci were tested on agar, using an inoculum of 10^4 CFU/spot and an incubation temperature of 37° C. for 24 hours—standard test conditions for the expression of methicillin resistance.

Moraxella catarrhalis = test: MIC, Moraxella catarrhalis; assay type: cell-based; conditions: fastidious Gram negative: Mueller-Hinton broth with hemin and NAD, 24 hours, 37° C., 5×10^4 CFU/well
Experimental: as §1
(§3) Streptococci and enterococci were tested on agar supplemented with 5% defibrinated horse blood, an inoculum of 10^4 CFU/spot and an incubation temperature of 37° C. in an atmosphere of 5% carbon dioxide for 48 hours—blood is required for the growth of some of the test organisms. Fastidious Gram negative organisms were tested in Mueller-Hinton broth, supplemented with hemin and NAD, grown aerobically for 24 hours at 37° C., and with an innoculum of 5×10^4 CFU/well.

Streptococcus pneumoniae = test: MIC, agar-dilution, Streptococcus pneumoniae; assay type: cell-based; conditions: agar with 5% defibrinated horse blood, 10^4 CFU/spot, 37° C., 5% carbon dioxide, 48 hours
Experimental: as §1, §3

[2] = test system: Staphylococcus aureus MRQR (methicillin resistant and quinolone resistant); test: MIC, agar-dilution, Staphylococcus aureus MRQR; assay type: cell-based; conditions: S. aureus MRQR, inoculum 10^4 CFU/spot, 37° C., 24 hours
Experimental: as §1, §2

Enterococcus faecium = test: MIC, agar-dilution, Enterococcus faecium; assay type: cell-based; conditions: agar with 5% defibrinated horse blood, 10^4 CFU/spot, 37° C., 5% carbon dioxide, 48 hours
Experimental: as §1, §3

MAO-A = molecular target: T1, MAO-A (Homo sapiens, UniProt P21397); test: MAO-A in-vitro assay, human liver enzyme expressed in yeast; assay type: biochemical
T1 construct: made in house; host or cells: yeast
T1 sequence (P21397 1-527): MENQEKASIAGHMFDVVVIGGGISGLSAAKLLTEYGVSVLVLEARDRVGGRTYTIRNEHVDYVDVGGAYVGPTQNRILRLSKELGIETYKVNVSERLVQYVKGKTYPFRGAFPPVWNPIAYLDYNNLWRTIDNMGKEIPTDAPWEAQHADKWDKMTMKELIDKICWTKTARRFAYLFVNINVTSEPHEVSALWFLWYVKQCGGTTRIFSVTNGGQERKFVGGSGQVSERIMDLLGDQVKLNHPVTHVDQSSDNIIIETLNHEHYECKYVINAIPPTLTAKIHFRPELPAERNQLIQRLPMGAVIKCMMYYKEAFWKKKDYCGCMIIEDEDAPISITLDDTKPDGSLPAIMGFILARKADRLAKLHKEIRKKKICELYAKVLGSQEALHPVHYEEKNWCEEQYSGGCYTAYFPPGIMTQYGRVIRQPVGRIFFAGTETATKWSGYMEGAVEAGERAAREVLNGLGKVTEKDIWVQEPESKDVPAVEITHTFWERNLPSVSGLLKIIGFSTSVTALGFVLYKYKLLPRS
Experimental: The activity of the compounds of the invention against MAO-A was tested using a standard in-vitro assay based on human liver enzyme expressed in yeast as described in Biochem. Biophys. Res. Commun. 1991, 181, 1084–1088.

| MIC [1] | MIC (Moraxella catarrhalis) | MIC (Streptococcus pneumoniae) | MIC [2] | MIC (Enterococcus faecium) | pKi (MAO-A) | SMILES |
| --- | --- | --- | --- | --- | --- | --- |
| 4 µg/mL (≈ 11.2 µM) | 1 µg/mL (≈ 2.8 µM) | 0.5 µg/mL (≈ 1.4 µM) | 1 µg/mL (≈ 2.8 µM) | 1 µg/mL (≈ 2.8 µM) | 4.23 | Cc1cn(C[C@H]2CN(c3ccc(-c4cc(C)no4)c(F)c3)C(=O)O2)nn1 [Example 1, (5R)-3-[3-Fluoro-4-(3-methylisoxazol-5-yl)phenyl]-5-[(4-methyl-1H-1,2,3-triazol-1-yl)methyl]-1,3-oxazolidin-2-one] |
|  |  |  |  |  | 5.16 | Cc1cc(-c2ccc(N3C[C@H](Cn4ccnn4)OC3=O)cc2F)on1 [unsubstituted triazole equivalent, reference compound] |

From patent US7157482B2, “Antibacterial 1,3-oxazolidin-2-one derivatives” (AstraZeneca AB, priority 2003, dated 2007)
